Reference: the supplement of paper PMC8617591

Experiments:
[1] = test system: Mycobacterium tuberculosis Erdman (autoluminescent); assay: total FIC50 (Loewe) at 50% inhibition, three-drug combination (log2); higher = more antagonistic
Description: (§1)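 DiaMOND equipotent three-drug combination dose responses (10 doses, 1.5- or 2-fold spacing, centred on IC90) against autoluminescent M. tuberculosis Erdman in 8 in vitro models. Read-out is OD600, or luminescence for the intracellular and dormancy models, normalised to untreated wells. Hill-fit Einf, AUC25 and GRinf are potency metrics; FIC50 and FIC90 are total Loewe fractional inhibitory concentrations as log2 (negative = synergy).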

[2] = test system: Mycobacterium tuberculosis Erdman (autoluminescent); assay: total FIC90 (Loewe) at 90% inhibition, three-drug combination (log2); higher = more antagonistic
Description: as §1

[3] = test system: Mycobacterium tuberculosis Erdman (autoluminescent); assay: Einf, fitted maximum growth inhibition of three-drug combination (fraction); higher = stronger maximal inhibition
Description: as §1

[4] = test system: Mycobacterium tuberculosis Erdman (autoluminescent); assay: AUC25, normalised area under dose response up to IC25 (three-drug combination) (fraction (0-1)); higher = more potent at low dose
Description: as §1

[5] = test system: Mycobacterium tuberculosis Erdman (autoluminescent); assay: GRinf, maximum normalised growth rate inhibition (three-drug combination) (unitless (-1 to 1)); higher = less effect (negative = killing)
Description: as §1

CC(=O)NC[C@H]1CN(c2ccc(N3CCOCC3)c(F)c2)C(=O)O1 [linezolid] + COc1c(N2C[C@@H]3CCCN[C@@H]3C2)c(F)cc2c(=O)c(C(=O)O)cn(C3CC3)c12 [moxifloxacin] + CO[C@H]1/C=C/O[C@@]2(C)Oc3c(C)c(O)c4c(O)c(c(/C=N/N5CCN(C)CC5)c(O)c4c3C2=O)NC(=O)/C(C)=C\C=C\[C@H](C)[C@H](O)[C@@H](C)[C@@H](O)[C@@H](C)[C@H](OC(C)=O)[C@@H]1C [rifampicin]
Details | AUC25, [4] | Einf, [3] | GRinf, [5] | total FIC50, [1] | total FIC90, [2]
in vitro model: acidic pH 5.7, time point: constant (~7 days, model-specific) | 0.0527 | 0.811 | -0.0255 | 0.498 | –
in vitro model: acidic pH 5.7, time point: terminal (~4-5 doublings, model-specific) | 0.0717 | 0.984 | -0.147 | 0.628 | 0.503
in vitro model: intracellular J774, time point: constant = terminal | – | 0.919 | -0.103 | – | 0.656

Details | AUC25, [4] | Einf, [3] | GRinf, [5] | total FIC50, [1] | total FIC90, [2]
in vitro model: butyrate, time point: constant (~7 days, model-specific) | 0.0848 | 0.857 | 0.177 | 0.137 | –
in vitro model: butyrate, time point: terminal (~4-5 doublings, model-specific) | 0.0684 | 0.929 | 0.128 | 0.112 | 0.0683
in vitro model: cholesterol 0.05 mM, time point: constant (~7 days, model-specific) | 0.156 | 0.709 | -0.119 | 0.272 | –
in vitro model: cholesterol 0.05 mM, time point: terminal (~4-5 doublings, model-specific) | 0.124 | 0.916 | -0.285 | 4.84 | -0.628
in vitro model: cholesterol-high 0.2 mM, time point: constant (~7 days, model-specific) | 0.0752 | 0.889 | -0.343 | 0.731 | -0.284
in vitro model: cholesterol-high 0.2 mM, time point: terminal (~4-5 doublings, model-specific) | 0.0984 | 1 | -0.901 | 0.947 | 0.931
in vitro model: dormancy (butyrate + nitrate, low O2), time point: constant (~7 days, model-specific) | 0.0613 | 0.873 | 0.239 | 1.14 | 0.815
in vitro model: dormancy (butyrate + nitrate, low O2), time point: terminal (~4-5 doublings, model-specific) | 0.0476 | 0.971 | -0.0219 | 0.897 | 0.88
in vitro model: standard 7H9 glycerol, time point: constant = terminal | 0.0568 | 0.839 | 0.261 | 0.691 | –
in vitro model: valerate, time point: constant (~7 days, model-specific) | 0.0669 | 0.803 | 0.0279 | 0.393 | –
in vitro model: valerate, time point: terminal (~4-5 doublings, model-specific) | 0.0324 | 0.928 | 0.0628 | 0.609 | 0.105

CC(C)/N=c1\cc2n(-c3ccc(Cl)cc3)c3ccccc3nc-2cc1Nc1ccc(Cl)cc1 [clofazimine] + CC(=O)NC[C@H]1CN(c2ccc(N3CCOCC3)c(F)c2)C(=O)O1 [linezolid] + CO[C@H]1/C=C/O[C@@]2(C)Oc3c(C)c(O)c4c(O)c(c(/C=N/N5CCN(C)CC5)c(O)c4c3C2=O)NC(=O)/C(C)=C\C=C\[C@H](C)[C@H](O)[C@@H](C)[C@@H](O)[C@@H](C)[C@H](OC(C)=O)[C@@H]1C [rifampicin]
Details | AUC25, [4] | Einf, [3] | GRinf, [5] | total FIC50, [1] | total FIC90, [2]
in vitro model: acidic pH 5.7, time point: constant (~7 days, model-specific) | 0.0866 | 0.853 | -0.0709 | 0.38 | –
in vitro model: acidic pH 5.7, time point: terminal (~4-5 doublings, model-specific) | 0.0808 | 0.981 | -0.119 | 0.419 | 0.256
in vitro model: intracellular J774, time point: constant = terminal | – | 0.941 | -0.215 | – | -0.471

Details | AUC25, [4] | Einf, [3] | GRinf, [5] | total FIC50, [1] | total FIC90, [2]
in vitro model: butyrate, time point: constant (~7 days, model-specific) | 0.103 | 0.922 | -0.0328 | 0.22 | 0.103
in vitro model: butyrate, time point: terminal (~4-5 doublings, model-specific) | 0.07 | 0.95 | 0.00888 | 0.26 | -0.0854
in vitro model: cholesterol 0.05 mM, time point: constant (~7 days, model-specific) | 0.14 | 0.687 | 0.0599 | -0.708 | –
in vitro model: cholesterol 0.05 mM, time point: terminal (~4-5 doublings, model-specific) | 0.132 | 0.908 | -0.188 | 4.59 | -0.0601
in vitro model: cholesterol-high 0.2 mM, time point: constant (~7 days, model-specific) | 0.13 | 0.963 | -0.755 | 0.342 | 0.45
in vitro model: cholesterol-high 0.2 mM, time point: terminal (~4-5 doublings, model-specific) | 0.107 | 0.995 | -0.935 | 0.34 | 0.174
in vitro model: dormancy (butyrate + nitrate, low O2), time point: constant (~7 days, model-specific) | 0.0831 | 0.908 | 0.229 | 1.29 | 0.832
in vitro model: dormancy (butyrate + nitrate, low O2), time point: terminal (~4-5 doublings, model-specific) | 0.0549 | 0.979 | -0.148 | 0.408 | 0.6
in vitro model: standard 7H9 glycerol, time point: constant = terminal | 0.0962 | 0.917 | 0.0708 | 0.0668 | 0.29
in vitro model: valerate, time point: constant (~7 days, model-specific) | 0.0981 | 0.885 | -0.0893 | 0.928 | –
in vitro model: valerate, time point: terminal (~4-5 doublings, model-specific) | 0.058 | 0.942 | -0.0199 | 0.756 | 0.805

CC(=O)NC[C@H]1CN(c2ccc(N3CCOCC3)c(F)c2)C(=O)O1 [linezolid] + O=[N+]([O-])c1cn2c(n1)OC[C@@H](OCc1ccc(OC(F)(F)F)cc1)C2 [pretomanid] + NC(=O)c1cnccn1 [pyrazinamide]
Details | AUC25, [4] | Einf, [3] | GRinf, [5] | total FIC50, [1] | total FIC90, [2]
in vitro model: acidic pH 5.7, time point: constant (~7 days, model-specific) | 0.0949 | 0.856 | -0.473 | 0.268 | –
in vitro model: acidic pH 5.7, time point: terminal (~4-5 doublings, model-specific) | 0.0835 | 0.975 | -0.473 | 0.91 | -0.88
in vitro model: intracellular J774, time point: constant = terminal | – | 0.986 | -0.287 | – | 0.7

Details | AUC25, [4] | Einf, [3] | GRinf, [5] | total FIC50, [1] | total FIC90, [2]
in vitro model: butyrate, time point: constant (~7 days, model-specific) | 0.104 | 0.885 | 0.0996 | -0.0692 | –
in vitro model: butyrate, time point: terminal (~4-5 doublings, model-specific) | 0.0881 | 0.929 | 0.102 | -0.254 | 0.667
in vitro model: cholesterol 0.05 mM, time point: constant (~7 days, model-specific) | 0.14 | 0.706 | -0.191 | – | –
in vitro model: cholesterol 0.05 mM, time point: terminal (~4-5 doublings, model-specific) | 0.145 | 0.93 | -0.318 | 0.461 | –
in vitro model: cholesterol-high 0.2 mM, time point: constant (~7 days, model-specific) | 0.108 | 0.902 | -0.152 | 0.147 | –
in vitro model: cholesterol-high 0.2 mM, time point: terminal (~4-5 doublings, model-specific) | 0.113 | 1 | -1 | 0.0501 | 0.419
in vitro model: dormancy (butyrate + nitrate, low O2), time point: constant (~7 days, model-specific) | 0.056 | 0.907 | 0.16 | 0.49 | 0.622
in vitro model: dormancy (butyrate + nitrate, low O2), time point: terminal (~4-5 doublings, model-specific) | 0.0409 | 0.985 | -0.287 | 0.47 | 0.511
in vitro model: standard 7H9 glycerol, time point: constant = terminal | 0.0884 | 0.926 | 0.0609 | 0.706 | –
in vitro model: valerate, time point: constant (~7 days, model-specific) | 0.102 | 0.808 | 0.0778 | -0.628 | –
in vitro model: valerate, time point: terminal (~4-5 doublings, model-specific) | 0.0792 | 0.891 | 0.177 | -0.429 | 1.41
